# From ChEMBL document CHEMBL3885861, “Open TG-GATES”
# Species on record: Rattus norvegicus
# Assay: Open TG-GATES - Regimen: Daily Repeat
# Assay type: toxicity, organism-based, Sprague-Dawley
# Design: regimen Daily Repeat, gender Male, age 6 weeks
# Details: in vivo, po, 30 mg/kg, route gavage, dose level Low; for APTT / Bas / Eos / Fbg / Hb / Ht / Lym / MCH / MCHC / MCV / Mono / Neu / PT / Plat / RBC / Ret / WBC: tissue Blood; for KIDNEY_L / KIDNEY_R / KIDNEY_TOTAL: tissue Kidney; for LIVER: tissue Liver; for A/G / ALP / ALT / AST / BUN / CRE / Ca / Cl / DBIL / GLC / IP / K / LDH / Na / PL / RALB / TBIL / TC / TG / TP / gamma-GTP: tissue Plasma
smiles,measurement,setting,value
CC[C@H]1[C@@H]2C[C@H]3[C@@H]4N(C)c5ccccc5[C@]45C[C@@H]([C@@H]2[C@H]5O)N3[C@@H]1O [AJMALINE],TERMINAL_BW,"72 h, time 3 day",214.3 g
same,APTT,"72 h, time 3 day",16.2 s
same,Bas,"72 h, time 3 day",0%
same,Eos,"72 h, time 3 day",1.2%
same,Fbg,"72 h, time 3 day",210 mg/dL
same,Hb,"72 h, time 3 day",13 g/dL
same,Ht,"72 h, time 3 day",39.3%
same,Lym,"72 h, time 3 day",78%
same,MCH,"72 h, time 3 day",21.7 pg
same,MCHC,"72 h, time 3 day",33%
same,MCV,"72 h, time 3 day",65.7 fL
same,Mono,"72 h, time 3 day",8.4%
same,Neu,"72 h, time 3 day",12.8%
same,PT,"72 h, time 3 day",11.7 s
same,Plat,"72 h, time 3 day",118 x10_4/uL
same,RBC,"72 h, time 3 day",599 x10_4/ul
same,Ret,"72 h, time 3 day",8.9%
same,WBC,"72 h, time 3 day",93 x10_2/uL
same,KIDNEY_L,"72 h, time 3 day",0.9 g
same,KIDNEY_R,"72 h, time 3 day",0.9 g
same,KIDNEY_TOTAL,"72 h, time 3 day",1.8 g
same,LIVER,"72 h, time 3 day",10.4 g
same,A/G,"72 h, time 3 day",2.1
same,ALP,"72 h, time 3 day",904.4 IU/L
same,ALT,"72 h, time 3 day",36.2 IU/L
same,AST,"72 h, time 3 day",66.6 IU/L
same,BUN,"72 h, time 3 day",18.2 mg/dL
same,CRE,"72 h, time 3 day",0.5 mg/dL
same,Ca,"72 h, time 3 day",11.1 mg/dL
same,Cl,"72 h, time 3 day",102.6 meq/L
same,DBIL,"72 h, time 3 day",0.024 mg/dL
same,GLC,"72 h, time 3 day",198.2 mg/dL
same,IP,"72 h, time 3 day",7.2 mg/dL
same,K,"72 h, time 3 day",4.3 meq/L
same,LDH,"72 h, time 3 day",113 IU/L
same,Na,"72 h, time 3 day",139.6 meq/L
same,PL,"72 h, time 3 day",141.4 mg/dL
same,RALB,"72 h, time 3 day",3.8 g/dL
same,TBIL,"72 h, time 3 day",0.3 mg/dL
same,TC,"72 h, time 3 day",78.2 mg/dL
same,TG,"72 h, time 3 day",85 mg/dL
same,TP,"72 h, time 3 day",5.6 g/dL
same,gamma-GTP,"72 h, time 3 day",0.8 IU/L
same,TERMINAL_BW,"[…], time 7 day",248 g
same,TERMINAL_BW,"[…], time 14 day",297.8 g
same,TERMINAL_BW,"[…], time 28 day",375.4 g
same,APTT,"[…], time 7 day",17 s
same,Bas,"[…], time 7 day",0%
same,Eos,"[…], time 7 day",1.2%
same,Fbg,"[…], time 7 day",229.4 mg/dL
same,Hb,"[…], time 7 day",13 g/dL
same,Ht,"[…], time 7 day",39.1%
same,Lym,"[…], time 7 day",75.4%
same,MCH,"[…], time 7 day",21.4 pg
same,MCHC,"[…], time 7 day",33.3%
same,MCV,"[…], time 7 day",64.2 fL
same,Mono,"[…], time 7 day",10.2%
same,Neu,"[…], time 7 day",13.6%
same,PT,"[…], time 7 day",11.4 s
same,Plat,"[…], time 7 day",118.3 x10_4/uL
same,RBC,"[…], time 7 day",609.8 x10_4/ul
same,Ret,"[…], time 7 day",7%
same,WBC,"[…], time 7 day",106.1 x10_2/uL
same,APTT,"[…], time 14 day",16.7 s
same,Bas,"[…], time 14 day",0%
same,Eos,"[…], time 14 day",1%
same,Fbg,"[…], time 14 day",224 mg/dL
same,Hb,"[…], time 14 day",13.9 g/dL
same,Ht,"[…], time 14 day",41.9%
same,Lym,"[…], time 14 day",85%
same,MCH,"[…], time 14 day",20.3 pg
same,MCHC,"[…], time 14 day",33.1%
same,MCV,"[…], time 14 day",61.4 fL
same,Mono,"[…], time 14 day",4.2%
same,Neu,"[…], time 14 day",10%
same,PT,"[…], time 14 day",11.1 s
same,Plat,"[…], time 14 day",121.6 x10_4/uL
same,RBC,"[…], time 14 day",683.4 x10_4/ul
same,Ret,"[…], time 14 day",4.3%
same,WBC,"[…], time 14 day",138.2 x10_2/uL
same,APTT,"[…], time 28 day",17.2 s
same,Bas,"[…], time 28 day",0%
same,Eos,"[…], time 28 day",1%
same,Fbg,"[…], time 28 day",221.6 mg/dL
same,Hb,"[…], time 28 day",15.4 g/dL
same,Ht,"[…], time 28 day",45.5%
same,Lym,"[…], time 28 day",83%
same,MCH,"[…], time 28 day",20.4 pg
same,MCHC,"[…], time 28 day",33.8%
same,MCV,"[…], time 28 day",60.3 fL
same,Mono,"[…], time 28 day",4.6%
same,Neu,"[…], time 28 day",11.4%
same,PT,"[…], time 28 day",11.2 s
same,Plat,"[…], time 28 day",96.6 x10_4/uL
same,RBC,"[…], time 28 day",754.8 x10_4/ul
same,Ret,"[…], time 28 day",2.1%
same,WBC,"[…], time 28 day",110.2 x10_2/uL
same,KIDNEY_L,"[…], time 7 day",1 g
same,KIDNEY_R,"[…], time 7 day",1 g
same,KIDNEY_TOTAL,"[…], time 7 day",2 g
same,KIDNEY_L,"[…], time 14 day",1.2 g
same,KIDNEY_R,"[…], time 14 day",1.2 g
same,KIDNEY_TOTAL,"[…], time 14 day",2.3 g
same,KIDNEY_L,"[…], time 28 day",1.3 g
same,KIDNEY_R,"[…], time 28 day",1.3 g
same,KIDNEY_TOTAL,"[…], time 28 day",2.7 g
same,LIVER,"[…], time 7 day",12 g
same,LIVER,"[…], time 14 day",13.8 g
same,LIVER,"[…], time 28 day",16.1 g
same,A/G,"[…], time 7 day",1.8
same,ALP,"[…], time 7 day",975.8 IU/L
same,ALT,"[…], time 7 day",34.8 IU/L
same,AST,"[…], time 7 day",65.6 IU/L
same,BUN,"[…], time 7 day",20.2 mg/dL
same,CRE,"[…], time 7 day",0.5 mg/dL
same,Ca,"[…], time 7 day",11.4 mg/dL
same,Cl,"[…], time 7 day",104.4 meq/L
same,DBIL,"[…], time 7 day",0.012 mg/dL
same,GLC,"[…], time 7 day",196.8 mg/dL
same,IP,"[…], time 7 day",7.3 mg/dL
same,K,"[…], time 7 day",4.7 meq/L
same,LDH,"[…], time 7 day",119.6 IU/L
same,Na,"[…], time 7 day",141.4 meq/L
same,PL,"[…], time 7 day",160 mg/dL
same,RALB,"[…], time 7 day",3.8 g/dL
same,TBIL,"[…], time 7 day",0.3 mg/dL
same,TC,"[…], time 7 day",82 mg/dL
same,TG,"[…], time 7 day",123.2 mg/dL
same,TP,"[…], time 7 day",5.9 g/dL
same,gamma-GTP,"[…], time 7 day",1.4 IU/L
same,A/G,"[…], time 14 day",2.2
same,ALP,"[…], time 14 day",942.2 IU/L
same,ALT,"[…], time 14 day",32.4 IU/L
same,AST,"[…], time 14 day",61 IU/L
same,BUN,"[…], time 14 day",20 mg/dL
same,CRE,"[…], time 14 day",0.5 mg/dL
same,Ca,"[…], time 14 day",10.9 mg/dL
same,Cl,"[…], time 14 day",105.2 meq/L
same,DBIL,"[…], time 14 day",0.01 mg/dL
same,GLC,"[…], time 14 day",201 mg/dL
same,IP,"[…], time 14 day",7.1 mg/dL
same,K,"[…], time 14 day",4.5 meq/L
same,LDH,"[…], time 14 day",104.8 IU/L
same,Na,"[…], time 14 day",141.4 meq/L
same,PL,"[…], time 14 day",157.6 mg/dL
same,RALB,"[…], time 14 day",3.9 g/dL
same,TBIL,"[…], time 14 day",0.3 mg/dL
same,TC,"[…], time 14 day",80 mg/dL
same,TG,"[…], time 14 day",106.8 mg/dL
same,TP,"[…], time 14 day",5.8 g/dL
same,gamma-GTP,"[…], time 14 day",1.8 IU/L
same,A/G,"[…], time 28 day",1.8
same,ALP,"[…], time 28 day",659.2 IU/L
same,ALT,"[…], time 28 day",30.8 IU/L
same,AST,"[…], time 28 day",62.8 IU/L
same,BUN,"[…], time 28 day",19.6 mg/dL
same,CRE,"[…], time 28 day",0.6 mg/dL
same,Ca,"[…], time 28 day",10.5 mg/dL
same,Cl,"[…], time 28 day",105.2 meq/L
same,DBIL,"[…], time 28 day",0.008 mg/dL
same,GLC,"[…], time 28 day",198.2 mg/dL
same,IP,"[…], time 28 day",6.2 mg/dL
same,K,"[…], time 28 day",4.5 meq/L
same,LDH,"[…], time 28 day",109.6 IU/L
same,Na,"[…], time 28 day",142.4 meq/L
same,PL,"[…], time 28 day",158.2 mg/dL
same,RALB,"[…], time 28 day",3.9 g/dL
same,TBIL,"[…], time 28 day",0.3 mg/dL
same,TC,"[…], time 28 day",71.8 mg/dL
same,TG,"[…], time 28 day",190.2 mg/dL
same,TP,"[…], time 28 day",6.1 g/dL
same,gamma-GTP,"[…], time 28 day",1 IU/L
